Test results: US4393055A, “Hydroxyalkyl ether derivatives of rutin poly(H-)sulfate and method of use” (American Cyanamid Company, priority 1982, dated 1983)
Where “and” joins values, the source holds several entries; their conditions need not be identical. Identical values can stand only once. Counter-ions that a name gives are not always drawn.

Key:
[1] = test system: total hemolytic complement activity; details: in vitro and in vivo; judged by reduction in total hemolytic complement activity; cited from earlier work
activated human C1 = activated human C1 (Homo sapiens, UniProt P09871); test: Test Code 026 (C1 inhibitor); format: biochemical; details: twofold serial dilutions; higher well number indicates higher activity
Method: (§1) An active inhibitor protects C2 from C1 and C4; (ii) Cap 50 Test--Here, appropriate amounts of the test compound are added to a pool of guinea pig serum in vitro, after which the undiluted serum capillary tube assay referred to above is run. The concentration of compound inhibiting 50% is reported; and (iii) Guinea Pig Intraperitoneal Test (GPIP)--Guinea pigs weighing about 300 g. are dosed intraperitoneally (i.p.) with 200 mg./kg. of the test compound dissolved in saline and adjusted to pH 7-8. Approximately 0.4 ml. blood samples, taken by orbital sinus puncture 30 minutes and one hour after injections, are collected directly into centrifuge tubes; 5 ml. blood samples, taken by decapitation 2 hours after injection are collected directly into beakers. The samples are allowed to clot, centrifuged, and the resultant sera are assayed for complement activity using the capillary complement assay. Percent inhibition are calculated by comparison with simultaneous controls.

[2] = test system: complement activity of sera; test: Guinea Pig Intraperitoneal Test (GPIP); format: in vivo; details: 200 mg./kg. i.p.
Method: as §1, with “[…],” for “taken by orbital sinus puncture 30 minutes and one hour after injections,”, “taken by decapitation 2 hours after injection are collected directly into” left out

Sequence of activated human C1 (P09871 16-437 limits assumed): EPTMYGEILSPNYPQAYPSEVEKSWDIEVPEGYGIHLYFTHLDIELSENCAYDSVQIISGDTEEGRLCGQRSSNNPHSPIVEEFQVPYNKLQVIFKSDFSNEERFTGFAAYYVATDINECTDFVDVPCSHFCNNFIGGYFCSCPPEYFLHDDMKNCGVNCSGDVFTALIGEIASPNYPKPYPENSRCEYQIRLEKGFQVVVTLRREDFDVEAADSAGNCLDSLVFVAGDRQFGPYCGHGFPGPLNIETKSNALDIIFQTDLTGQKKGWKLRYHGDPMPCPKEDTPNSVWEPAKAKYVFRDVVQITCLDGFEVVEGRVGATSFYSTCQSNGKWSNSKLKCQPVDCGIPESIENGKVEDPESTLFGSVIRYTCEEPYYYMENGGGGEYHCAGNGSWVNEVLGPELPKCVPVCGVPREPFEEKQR
Sequence of activated human C1 (P09871 438-688 limits assumed): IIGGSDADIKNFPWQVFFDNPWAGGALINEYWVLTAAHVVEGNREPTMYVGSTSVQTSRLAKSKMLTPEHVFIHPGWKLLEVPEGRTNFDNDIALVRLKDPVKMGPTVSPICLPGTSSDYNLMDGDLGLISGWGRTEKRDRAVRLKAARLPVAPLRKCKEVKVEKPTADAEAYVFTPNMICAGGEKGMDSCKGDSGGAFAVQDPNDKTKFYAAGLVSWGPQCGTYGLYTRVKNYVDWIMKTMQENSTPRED
Sequence of activated human C1 (P00736 18-463 partner limits assumed): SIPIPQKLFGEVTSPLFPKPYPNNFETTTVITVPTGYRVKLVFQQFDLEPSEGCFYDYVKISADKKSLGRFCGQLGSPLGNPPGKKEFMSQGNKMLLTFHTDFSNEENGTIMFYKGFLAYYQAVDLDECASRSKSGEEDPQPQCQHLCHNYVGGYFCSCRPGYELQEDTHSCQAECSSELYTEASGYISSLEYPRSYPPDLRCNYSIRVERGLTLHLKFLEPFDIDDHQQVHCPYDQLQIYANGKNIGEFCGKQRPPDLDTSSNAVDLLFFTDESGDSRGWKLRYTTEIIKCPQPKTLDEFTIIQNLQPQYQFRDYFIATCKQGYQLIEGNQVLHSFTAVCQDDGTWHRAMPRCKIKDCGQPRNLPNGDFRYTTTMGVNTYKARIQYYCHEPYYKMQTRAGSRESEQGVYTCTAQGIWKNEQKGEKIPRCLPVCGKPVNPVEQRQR
Sequence of activated human C1 (P00736 464-705 partner limits assumed): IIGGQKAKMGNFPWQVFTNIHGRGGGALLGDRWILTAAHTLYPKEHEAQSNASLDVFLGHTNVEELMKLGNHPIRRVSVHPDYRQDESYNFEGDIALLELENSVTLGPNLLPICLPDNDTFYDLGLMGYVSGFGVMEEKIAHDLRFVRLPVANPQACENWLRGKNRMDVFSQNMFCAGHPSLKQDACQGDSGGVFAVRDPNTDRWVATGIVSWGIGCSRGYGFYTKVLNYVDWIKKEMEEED

In vitro Activity 026 (activity in wells, serial dilution assay) (activated human C1) | Compound | anticomplementary activity on human serum [1] | In vivo Activity (Guinea Pig) Intraperitoneal % Inhibition ([2]; Time (hours) 6) | In vivo Activity (Guinea Pig) Intraperitoneal % Inhibition ([2]; Time (hours) 4) [%] | In vivo Activity (Guinea Pig) Intraperitoneal % Inhibition ([2]; Time (hours) 24) [%]
 | pentosanpolysulfoester | has an anticomplementary activity on human serum, both in vitro and in vivo |  |  | 
7-10 wells | C[C@@H]1O[C@@H](OC[C@H]2O[C@@H](Oc3c(-c4ccc(OCCOS(=O)(=O)O)c(OCCOS(=O)(=O)O)c4)oc4cc(OCCOS(=O)(=O)O)cc(OS(=O)(=O)O)c4c3=O)[C@H](OS(=O)(=O)O)[C@@H](OS(=O)(=O)O)[C@@H]2OS(=O)(=O)O)[C@H](OS(=O)(=O)O)[C@H](OS(=O)(=O)O)[C@H]1OS(=O)(=O)O [3',4',7-Tris(2-hydroxyethyl)rutin, deca(H-sulfate)sodium salt] |  | 48% and 82% |  | 
6-12 wells | C[C@@H]1O[C@@H](OC[C@H]2O[C@@H](Oc3c(-c4ccc(OS(=O)(=O)O)c(OS(=O)(=O)O)c4)oc4cc(OCCOS(=O)(=O)O)cc(OS(=O)(=O)O)c4c3=O)[C@H](OS(=O)(=O)O)[C@@H](OS(=O)(=O)O)[C@@H]2OS(=O)(=O)O)[C@H](OS(=O)(=O)O)[C@H](OS(=O)(=O)O)[C@H]1OS(=O)(=O)O [7-(2-hydroxyethyl)rutin, deca(H-sulfate)sodium salt] |  | 71% | 88 | 20
9-12 wells | C[C@@H]1O[C@@H](OC[C@H]2O[C@@H](Oc3c(-c4ccc(OS(=O)(=O)O)c(OS(=O)(=O)O)c4)oc4cc(OCCOS(=O)(=O)O)cc(O)c4c3=O)[C@H](OS(=O)(=O)O)[C@@H](OS(=O)(=O)O)[C@@H]2OS(=O)(=O)O)[C@H](OS(=O)(=O)O)[C@H](OS(=O)(=O)O)[C@H]1OS(=O)(=O)O [7-(2-hydroxyethyl)rutin, nona(H-sulfate)sodium salt] |  | 71% | 86 | 35
